From patent US12594265B2, “Methods and compositions for inhibition of STAT3” (Ohio State Innovation Foundation, priority 2017, dated 2026)
Read-outs that look alike come from different tables or passages of the source. Each block holds one molecule with its values, some of them ahead of it.

Experiments:
[1] = in vivo; set-up: species or system mice
[2] = test system: IL-17 production in PBMCs from MS patients; format: cell-based, human; conditions: for IL-17 production in PBMCs from MS patients: activated with anti-CD3 for three or six days, different concentrations
Method: FIGS. 14A-14M show representative data for LLL12b suppression of human Th17 development and promotion of Treg development in CD4 T-cells from MS patients. FIGS. 14A, 14E, 14H, and 14K each shown representative data obtained in PBMCs from 22 treatment-naïve MS patients that were activated with αhCD3 plus rhIL-6 for 3 days, in the presence of 0.125 μM or 0.25 μM of LLL12b. DMSO was used as a vehicle control. IL-17 in supernatant was determined by ELISA. FIGS. 14B-14C, 14F, 14I, and 14L each shown representative data obtained in PBMCs from 22 treatment-naïve MS patients that were activated with αhCD3/CD28 plus rhTGFβ. rhIL-2 and RA for 3 days, in the presence of 0.125 μM of LLL12b. DMSO was used as vehicle control. CD25+FoxP3+CD4+ iTregs were determined by intracellular flow cytometry. Cells were gated CD45RA+CD4+ cells. […] IL-17 in each group was compared with one-way ANOVA. […] FIG. 14G the calculated IL-17/Treg ratio of each patient in LLL12b group and DMSO group and compared with Wilcoxon matched-pairs signed rank test. […] FIG. 14J the calculated percent decrease of IL-17/Treg ratio in LLL12b group compared to DMSO group. […] FIG. 14M patient numbers in different ranges of calculated percent decrease of IL-17/Treg.
FIGS. 12A-12B show representative data for the effect of a representative disclosed compound, LLL12b, on the production of proinflammatory cytokines in human peripheral blood mononuclear cells (PBMCs).
LLL12b reduces Teff/Treg ratio by suppressing human Th17 development and promoting Treg development of CD4 T cells from MS patients. Teff/Treg balance is critical for the normal function of the human immune system and increased Teff/Treg ratio favors autoimmunity. As IL-6/STAT3 signaling pathway is critical for the highly encephalitogenic Th17 cells while blocks the development of inducible Tregs (iTregs), we hypothesize that novel small molecule STAT3 inhibitor LLL12b will reduces Teff/Treg ratio by suppressing Th17 development and/or prompting iTreg development. Therefore, we determined the effects of LLL12b on IL-17 production and iTreg development of CD4 T cells from 22 treatment-naïve MS patients (FIGS. 14A-14M). Human PBMCs from 22 treatment-naïve MS patients were activated with αhCD3 for 3 days, in the presence of different concentrations of LLL12b or vehicle control (DMSO), IL-17 production in supernatants was determined by ELISA. As the myelin-reactive CD4 T cells in MS patients are predominantly from the memory T-cell compartment, we activated human PBMCs with αhCD3 to specifically activate effector/memory CD4 T cells.
To determine whether LLL12b treatment decreases Th17/Treg ratio in CD4 T cells from MS patients, the IL-17/Treg ratio of all 22 treatment-naïve MS patients treated with LLL12b was calculated and compared with those treated with DMSO (FIGS. 14G, 14J, and 14M). The data in Table 2 show the patient numbers in different ranges of percentage decrease of IL-17, percentage increase of iTregs or percentage decrease of IL-17/iTreg of 22 treatment-naïve MS patients treated with LLL12b compared to DMSO treatment.

[3] = mouse, in vivo, mice, Intravenous 2 mg/kg
[4] = mouse, in vivo, mice, Oral 8 mg/kg
[5] = of 22 treatment-naïve MS patients, compared to DMSO

Tmax ([1]; mouse, in vivo): 5 to 10 min | time until cleared ([1]; mouse, in vivo): ~60 min | AUC ([1]; mouse, in vivo, ip, 20 mg/kg): 0.431 µM·h | AUC(0-inf) ([1]; mouse, in vivo, ip, 20 mg/kg): 0.438 µM·h | Cmax ([1]; mouse, in vivo, ip, 20 mg/kg): 922 nM | Tmax ([1]; mouse, in vivo, ip, 20 mg/kg): 10 min | bioavailability ([1]; mouse, in vivo, ip, 20 mg/kg): 29.1% | AUC ([1]; mouse, in vivo, iv, 5 mg/kg): 0.373 µM·h | AUC(0-inf) ([1]; mouse, in vivo, iv, 5 mg/kg): 0.377 µM·h | Cmax ([1]; mouse, in vivo, iv, 5 mg/kg): 978 nM | Tmax ([1]; mouse, in vivo, iv, 5 mg/kg): 10 min | bioavailability ([1]; mouse, in vivo, iv, 5 mg/kg): 100% | time until cleared ([1]; mouse, in vivo, po): about 30 minutes | AUC ([1]; mouse, in vivo, po, 20 mg/kg): 0.0407 µM·h | Cmax ([1]; mouse, in vivo, po, 20 mg/kg): 176 nM | Tmax ([1]; mouse, in vivo, po, 20 mg/kg): 4.98 min | bioavailability ([1]; mouse, in vivo, po, 20 mg/kg): 2.73%
SMILES: NS(=O)(=O)c1cccc2c1C(=O)c1cccc(O)c1C2=O [LLL12]
IL-17 production in PBMCs from MS patients [2]: suppress IL-17 production

SMILES: CN(C)C(=O)Oc1cccc2c1C(=O)c1cccc(S(N)(=O)=O)c1C2=O [LLL12b]
duration of sustained effective concentration ([1]; mice, IV): about 4 hours | duration of sustained effective concentration ([1]; mice, PO): about 8 hours | AUC(0-t) [1, 3]: 892 ± 131 ng·h/mL | Vd [1, 3]: 12.4 ± 2.89 L/kg | clearance [1, 3]: 36.5 mL/min/kg | half-life [1, 3]: 233 ± 27 min | Cmax ([1]; mouse, in vivo, mice, Intravenous 2 mg/kg, read-out: Co/Cmax): 2880 ± 935 ng/mL | AUC(0-t) [1, 4]: 1360 ± 396 ng·h/mL | half-life [1, 4]: 461 ± 115 min | Cmax ([1]; mouse, in vivo, mice, Oral 8 mg/kg, read-out: Co/Cmax): 278 ± 93 ng/mL | Tmax ([1]; mouse, in vivo, mice, Oral 8 mg/kg, read-out: Tmax): 11.4 ± 5.4 min | bioavailability ([1]; mouse, in vivo, mice, printed in the Intravenous 2 mg/kg column, read-out: F (relative bioavailability)): 38% | hIL-17 production ([2]; 0.125 μM and 0.25 μM, one MS patient, 3 days): suppressed hIL-17 production | IL-17 production in effector/memory human CD4 T cells ([2]; 0.125 μM, 22 treatment-naïve MS patients): significantly suppressed IL-17 production | IL-17/Treg ratio ([2]; 22 treatment-naïve MS patients, compared to DMSO treated group): significantly lower | IL-17 production in PBMCs from MS patients [2]: suppress IL-17 production | patient numbers with % Decrease of IL-17 5-20% [2, 5]: 11 | patient numbers with % Decrease of IL-17 20-40% [2, 5]: 7 | patient numbers with % Decrease of IL-17/iTreg ratio 5-20% [2, 5]: 5 | patient numbers with % Decrease of IL-17/iTreg ratio 20-40% [2, 5]: 13 | patient numbers with % Decrease of IL-17/iTreg ratio <5% [2, 5]: 1 | patient numbers with % Decrease of IL-17/iTreg ratio >40% [2, 5]: 3 | patient numbers with % Decrease of IL-17 <5% [2, 5]: 1 | patient numbers with % Decrease of IL-17 >40% [2, 5]: 3
